Test [1] deals with CHO-K1. Put plainly: Relationship between concentration of each peptide solution and viable cell count (absorbance). In kind it is cell-based. The conditions noted are these: for Absorbance (450 nm): 5 days, MEMα without FBS, n = 3 average, 0 mM = 0.0000; for cell growth promotion, order of the peptides: in words, promoted in the order GEK, DGP, AGK, GPP, GGP, AEK, AGG, ASN, EGK (strongest first). The protocol: Peptides having the sequences of Gly-Glu-Lys (GEK), Asp-Gly-Pro (DGP), Ala-Gly-Lys (AGK), Gly-Pro-Pro (GPP), Gly-Gly-Pro (GGP), Ala-Glu-Lys (AEK), Ala-Gly-Gly (AGG), Ala-Ser-Asn (ASN), and Glu-Gly-Lys (EGK), and Gly-Gly-Gly (GGG) are synthesized to prepare each of peptide solutions at 10-fold concentrations shown in Tables 1 to 10.
A cell suspension prepared such that CHO-K1 (RI KEN BioResource Research Center, cell number: RCB2330) was at 3×10^4 cells/mL was seeded in a 96-well plate at 100 μL/well and cultured in an incubator at 37° C. and 5% CO2 for 24 hours. As a culture medium, an MEMα culture medium (Gibco) containing 10% FBS was used.
After removing the culture medium from each well and washing with the MEMα culture medium (100 μL), 90 μL of a new MEMa culture medium was dispensed into each well, and each peptide solution (10 μL) was added (total 100 μL/well) such that final concentrations were within a range of 0 mM to 5 mM as shown in Tables 1 to 10 to perform culture for 5 days. A similar culture test was performed using a system containing neither peptide nor FBS as a comparative sample. After culturing for 5 days, 10 μL/well of a viable cell count measurement reagent SF (Nacalai Tesque Inc.) was added, and a color reaction was carried out in an incubator at 37° C. and 5% CO2 for 2 hours to measure an absorbance at 450 nm with a plate reader. A reference wavelength was 630 nm. It was confirmed that the absorbance at 450 nm correlated with the cell number.
The above preparation, culture, and measurement were performed with n=3, and Tables 1 to 10 and FIGS. 1 to 10 show the absorbance at the concentration of each peptide solution.

For test [2], the system named is CHO-K1. The experiment in a line: Cell growth test of each peptide on coating agent for 5 days. In kind it is cell-based. The arrangement: Viability, 1 / Viability, 2 / Viability, 3 / Viability, Mean: unit not given here. The following applies: 2.0 mM Ala-Gly-Lys, 2.1 mM Gly-Glu-Lys, 2.5 mM Gly-Gly-Gly, poly-L-lysine coating. As to the method:
Peptides having the sequences of Asp-Gly-Pro (DGP), Ala-Gly-Lys (AGK), Gly-Glu-Lys (GEK), and Gly-Gly-Gly (GGG) were synthesized to prepare each peptide solution such that the concentration was a concentration at which the cell number increased the most within a range of 0 mM to 5 mM. In other words, Asp-Gly-Pro (DGP) was adjusted to 22 mM, Ala-Gly-Lys (AGK) was adjusted to 20 mM, Gly-Glu-Lys (GEK) was adjusted to 21 mM, and Gly-Gly-Gly (GGG) was adjusted to 25 mM, and an amount of 1/10 of the total culture medium volume was added to each well immediately before the cell culture test such that final concentrations were 2.2 mM, 2.0 mM, 2.1 mM, and 2.5 mM, respectively. Poly-L-lysine (Peptide Institute, Inc., Poly-L-Lysine Hydrochloride, code: 3075) was prepared to 0.1 mg/mL, and 200 μL was dispensed into each well of a 24-well plate, which was left to stand in an incubator at 37° C. for 2 hours. After removing the residual liquid with an aspirator, rinsing was performed with distilled water, irradiation was performed with a UV lamp in a clean bench without a lid, and drying was performed overnight to sterilize. A cell suspension prepared such that CHO-K1 (RIKEN BioResource Research Center, cell number: RCB2330) was at 4×10^4 cells/mL was seeded in each well of a 24-well plate at 500 μL/well and cultured in an incubator at 37° C. and 5% CO2 for 24 hours. As a culture medium, an MEMα culture medium (Gibco) containing 10% FBS was used.
After removing the culture medium from each well and washing with the MEMα culture medium (500 μL), 450 μL of a new MEMα culture medium was dispensed into each well, and each peptide solution (50 μL) was added (total 500 μL/well) to perform culture for 5 days. The cells were recovered to count the cell number. A similar culture test was performed using a system containing neither peptide nor FBS as a comparative sample.
The culture medium in each well was recovered in a 1.5 mL tube to be rinsed with 200 μL of MEMα, and the rinsed liquid was also recovered in the same 1.5 mL tube. Thereafter, 100 μL of trypsin was added and incubated for 3 minutes. After rinsing with 300 μL of MEMα containing 10% FBS, the rinsed liquid was also recovered in the same 1.5 mL tube. After rinsing again with 200 μL of MEMα containing 10% FBS, the rinsed liquid was also recovered in the same 1.5 mL tube.
A centrifugation operation was performed on the cells recovered in the 1.5 mL tube. The centrifugation conditions were 1,000 rpm, 10 minutes, and 4° C.
The supernatant was removed, and 300 μL of Cold PBS (phosphate buffered saline) was added to perform a centrifugation operation under the same conditions. The present operation was repeated twice.
Suspension was carried out with 100 μL of Binding Buffer, and 2 μL of propidium iodide (PI) was added and stirred in the tube to cause a reaction for 15 minutes at room temperature and with light shielding. Thereafter, the viable cell count and the cell viability were measured with a flow cytometer.
The above preparation, culture, and measurement were performed with n=3. Table 15 and FIG. 15 show the viable cell count in each peptide solution, and Table 16 and FIG. 16 show the cell viability in each peptide solution.

The mark [3] stands for this setting: replicate 1, 2.2 mM Asp-Gly-Pro.
The mark [4] stands for this setting: replicate 2, 2.2 mM Asp-Gly-Pro.
The mark [5] stands for this setting: replicate 3, 2.2 mM Asp-Gly-Pro.

As to Gly-Gly-Pro [GGP], the “Absorbance (450 nm)” value in test [1] (0.135 mM peptide) was 0.0420; in test [1] (0.270 mM peptide) it was 0.0966; in test [1] (0.539 mM peptide) it was 0.2946; in test [1] (1.08 mM peptide) it was 0.4653; in test [1] (2.16 mM peptide), 0.5483; in test [1] (4.31 mM peptide), 0.3286. Besides, the “cell growth promotion, order of the peptides” value (shortened to “cell growth promotion, order”) in test [1] is reported as “cell growth was promoted”.

Regarding Ala-Gly-Gly [AGG], the “Absorbance (450 nm)” value turned out to be 0.0277 in test [1] (0.156 mM peptide); 0.0274 in test [1] (0.313 mM peptide); 0.0967 in test [1] (0.625 mM peptide); 0.2064 in test [1] (1.25 mM peptide); 0.3357 in test [1] (2.5 mM peptide); 0.2080 in test [1] (5 mM peptide). The “cell growth promotion, order” value in test [1] is “cell growth was promoted”.

With Glu-Gly-Lys [EGK], the “Absorbance (450 nm)” value in test [1] (0.128 mM peptide) is 0.0383; in test [1] (0.257 mM peptide), 0.1123; in test [1] (0.512 mM peptide), 0.0893; in test [1] (1.02 mM peptide), 0.1503; in test [1] (2.05 mM peptide) it was 0.1876; in test [1] (4.10 mM peptide), 0.2373. In addition, the “cell growth promotion, order” value in test [1] is given as “cell growth was promoted”.

On to Gly-Gly-Gly [GGG, reference compound], for which the “Absorbance (450 nm)” value in test [1] (0.156 mM peptide) is 0.0067; in test [1] (0.313 mM peptide) it was 0.0037; in test [1] (0.625 mM peptide), 0.0027; in test [1] (1.25 mM peptide), −0.0013; in test [1] (2.5 mM peptide), 0.0013; in test [1] (5 mM peptide) it was 0.0083. Also, the “Cells cell count, Mean” value in test [2] (mean n=3, 2.2 mM Asp-Gly-Pro) is 0.0502 ×10^4. Also, in test [2] (mean n=3, 2.2 mM Asp-Gly-Pro), the “Viability, Mean” value was determined as 1.7. Further, in test [2] (setting [3]), the “Cells cell count, 1” value is 0.1360 ×10^4. Besides, the “Viability, 1” value in test [2] (setting [3]) was found to be 4.45. The “Cells cell count, 2” value in test [2] (setting [4]) is reported as 0.0080 ×10^4. Also, in test [2] (setting [4]), the “Viability, 2” value was found to be 0.31. Besides, in test [2] (setting [5]), the “Cells cell count, 3” value was 0.0065 ×10^4. Further, the “Viability, 3” value in test [2] (setting [5]) worked out at 0.21.

For the substance Ala-Glu-Lys [AEK], the “Absorbance (450 nm)” value worked out at 0.0350 in test [1] (0.129 mM peptide); 0.1143 in test [1] (0.259 mM peptide); 0.1927 in test [1] (0.516 mM peptide); 0.2337 in test [1] (1.03 mM peptide); 0.5013 in test [1] (2.06 mM peptide); 0.4857 in test [1] (4.13 mM peptide). In addition, the “cell growth promotion, order” value in test [1] is reported as “cell growth was promoted”.

With Ala-Ser-Asn, the “Absorbance (450 nm)” value in test [1] (0.138 mM peptide) is reported as −0.0527; in test [1] (0.276 mM peptide), −0.0250; in test [1] (0.552 mM peptide), −0.0214; in test [1] (1.10 mM peptide), −0.0224; in test [1] (2.21 mM peptide) it was 0.1170; in test [1] (4.42 mM peptide) it was 0.3320. The “cell growth promotion, order” value in test [1] is recorded as “cell growth was promoted”.

The values above are taken from patent US20240101599A1, “PEPTIDE, CELL GROWTH PROMOTER, PROTEIN PRODUCTION PROMOTER, CULTURE MEDIUM, CELL GROWTH METHOD USING PEPTIDE, AND PROTEIN PRODUCTION METHOD USING PEPTIDE” (Maruhachi Muramatsu, Inc., priority 2020, published 2024).
